Results as given in patent publication US20090227607A1, “DEAZAPURINES USEFUL AS INHIBITORS OF JANUS KINASES” (priority 2006, published 2009).
pKi: −log10 of the molar value.

Tests used:
JAK3 = molecular target: T1, JAK3 (Homo sapiens, UniProt P52333); experiment: JAK3 Inhibition Assay; format: biochemical; details: 1 μM poly(Glu)4Tyr, 5 μM ATP, 1 nM JAK3, 25° C.; read-out: JAK3 enzyme inhibition data (Ki)
T1 sequence (P52333 1-1124): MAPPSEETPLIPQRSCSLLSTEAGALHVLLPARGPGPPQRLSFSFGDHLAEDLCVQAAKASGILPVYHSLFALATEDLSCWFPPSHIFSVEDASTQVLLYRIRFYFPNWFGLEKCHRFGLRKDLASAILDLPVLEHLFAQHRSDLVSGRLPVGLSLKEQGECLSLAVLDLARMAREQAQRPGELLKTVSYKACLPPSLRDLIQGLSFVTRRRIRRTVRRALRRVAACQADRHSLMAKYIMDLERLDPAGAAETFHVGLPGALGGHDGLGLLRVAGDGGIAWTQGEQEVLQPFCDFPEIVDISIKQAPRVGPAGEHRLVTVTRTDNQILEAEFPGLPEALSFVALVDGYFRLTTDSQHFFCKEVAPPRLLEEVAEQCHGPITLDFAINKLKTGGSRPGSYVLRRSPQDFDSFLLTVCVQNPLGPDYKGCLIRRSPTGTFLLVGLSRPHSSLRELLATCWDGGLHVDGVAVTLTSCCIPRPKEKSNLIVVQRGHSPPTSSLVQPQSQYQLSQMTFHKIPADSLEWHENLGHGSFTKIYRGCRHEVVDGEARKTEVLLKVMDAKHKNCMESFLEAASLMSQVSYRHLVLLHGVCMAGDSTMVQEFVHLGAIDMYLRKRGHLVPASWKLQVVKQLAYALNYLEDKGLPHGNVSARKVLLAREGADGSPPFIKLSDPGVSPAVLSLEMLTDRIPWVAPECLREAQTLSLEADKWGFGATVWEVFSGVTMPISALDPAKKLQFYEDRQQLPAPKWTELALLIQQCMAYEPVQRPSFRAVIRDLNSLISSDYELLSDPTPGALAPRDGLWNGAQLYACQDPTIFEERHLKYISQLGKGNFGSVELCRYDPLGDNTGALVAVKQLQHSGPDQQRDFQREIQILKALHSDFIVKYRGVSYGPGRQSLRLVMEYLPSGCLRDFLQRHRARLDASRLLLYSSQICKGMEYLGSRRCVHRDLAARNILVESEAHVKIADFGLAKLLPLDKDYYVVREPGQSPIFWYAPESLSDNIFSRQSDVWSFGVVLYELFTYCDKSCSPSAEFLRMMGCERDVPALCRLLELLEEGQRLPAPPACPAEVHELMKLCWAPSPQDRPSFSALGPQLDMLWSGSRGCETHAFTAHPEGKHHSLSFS
Experimental: (§1) Compounds were screened for their ability to inhibit JAK3 using the assay shown below. Reactions were carried out in a kinase buffer containing 100 mM HEPES (pH 7.4), 1 mM DTT, 10 mM MgCl2, 25 mM NaCl, and 0.01% BSA. Substrate concentrations in the assay were 5 μM ATP (200 uCi/μmole ATP) and 1 μM poly(Glu)4Tyr. Reactions were carried out at 25° C. and 1 nM JAK3.
(§2) To each well of a 96 well polycarbonate plate was added 1.5 μl of a candidate JAK3 inhibitor along with 50 μl of kinase buffer containing 2 μM poly(Glu)4Tyr and […]. This was then mixed and […] of kinase buffer containing 2 nM JAK3 enzyme was added to start the reaction. After 20 minutes at room temperature (25° C.), the reaction was stopped with 50 μl of 20% trichloroacetic acid (TCA) that also contained 0.4 mM ATP. The entire contents of each well were then transferred to a 96 well glass fiber filter plate using a TomTek Cell Harvester. After washing, 60 μl of scintillation fluid was added and ^33P incorporation detected on a Perkin Elmer TopCount.
(§3) Tables 5 and 6 depict enzyme inhibition data (Ki) for certain exemplary compounds. Compound numbers in Tables 5 and 6 correspond to those compounds depicted in Tables 1 and 2, respectively.

JAK-2 enzyme = JAK-2 enzyme (Homo sapiens, UniProt O60674); experiment: JAK2 Inhibition Assay; format: biochemical; details: 15 μM poly(Glu)4Tyr, 12 μM ATP, 25° C.
JAK-2 enzyme, sequence (O60674 whole entry, species assumed): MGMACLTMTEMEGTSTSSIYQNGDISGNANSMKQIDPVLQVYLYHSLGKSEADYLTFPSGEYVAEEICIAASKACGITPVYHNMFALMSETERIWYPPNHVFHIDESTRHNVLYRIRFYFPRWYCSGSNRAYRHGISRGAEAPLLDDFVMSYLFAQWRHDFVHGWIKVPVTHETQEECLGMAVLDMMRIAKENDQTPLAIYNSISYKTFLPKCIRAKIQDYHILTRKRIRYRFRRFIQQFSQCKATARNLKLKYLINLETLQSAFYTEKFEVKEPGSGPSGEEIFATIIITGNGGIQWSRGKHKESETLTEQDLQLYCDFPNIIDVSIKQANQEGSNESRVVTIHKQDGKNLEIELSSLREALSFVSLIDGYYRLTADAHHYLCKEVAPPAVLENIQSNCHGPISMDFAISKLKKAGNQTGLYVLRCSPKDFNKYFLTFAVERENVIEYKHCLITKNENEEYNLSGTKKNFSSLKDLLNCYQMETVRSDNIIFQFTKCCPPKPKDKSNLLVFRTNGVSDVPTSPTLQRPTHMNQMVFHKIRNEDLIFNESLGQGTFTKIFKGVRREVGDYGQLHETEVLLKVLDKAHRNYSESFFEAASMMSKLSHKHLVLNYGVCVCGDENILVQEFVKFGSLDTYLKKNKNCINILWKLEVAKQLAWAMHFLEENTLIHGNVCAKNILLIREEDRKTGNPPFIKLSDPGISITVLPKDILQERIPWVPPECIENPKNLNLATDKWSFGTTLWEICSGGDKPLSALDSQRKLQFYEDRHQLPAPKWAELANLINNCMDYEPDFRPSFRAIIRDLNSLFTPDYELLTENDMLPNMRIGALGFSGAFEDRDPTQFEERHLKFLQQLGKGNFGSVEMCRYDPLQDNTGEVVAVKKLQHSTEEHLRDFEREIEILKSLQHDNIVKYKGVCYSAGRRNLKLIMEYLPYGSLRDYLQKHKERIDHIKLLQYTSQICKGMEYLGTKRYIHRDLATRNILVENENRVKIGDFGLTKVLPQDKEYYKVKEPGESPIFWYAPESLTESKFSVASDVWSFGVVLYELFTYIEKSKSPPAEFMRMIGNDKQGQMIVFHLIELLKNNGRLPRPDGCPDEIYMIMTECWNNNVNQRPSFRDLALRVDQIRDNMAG
Experimental: as §1, §2
The assays were as described above in Example 36 except that JAK-2 enzyme was used, the final poly(Glu)4Tyr concentration was 15 μM, and final ATP concentration was 12 μM.
as §3

Compound | pKi (JAK3) | pKi (JAK-2 enzyme)
O=C(N[C@H](CO)c1cccc(Cl)c1)c1cc(-c2ncnc3[nH]ccc23)c[nH]1 [Compound 1] | > 7.00 | –
c1nc(-c2ccsc2)c2cc[nH]c2n1 [Compound 2] | 6.30 to 7.00 | 6.30 to 7.00
Cn1cc(-c2ncnc3[nH]ccc23)cn1 [Compound 3] | 6.30 to 7.00 | 6.30 to 7.00
c1cc(-c2ncnc3[nH]ccc23)[nH]n1 [Compound 4] | 6.30 to 7.00 | 5.30 to 6.30
c1nc(-c2cn[nH]c2)c2cc[nH]c2n1 [Compound 5] | 6.30 to 7.00 | 6.30 to 7.00
FC(F)(F)CCCn1cc(-c2ncnc3[nH]ccc23)cn1 [Compound 6] | 6.30 to 7.00 | > 7.00
O=C(NCC(F)(F)F)c1cc(-c2ncnc3[nH]ccc23)c[nH]1 [Compound 7] | > 7.00 | > 7.00
CC(C)NC(=O)c1cc(-c2ncnc3[nH]ccc23)c[nH]1 [Compound 8] | 6.30 to 7.00 | > 7.00
CC(C)CNC(=O)c1cc(-c2ncnc3[nH]ccc23)c[nH]1 [Compound 9] | > 7.00 | > 7.00
O=C(NCC(F)F)c1cc(-c2ncnc3[nH]ccc23)c[nH]1 [Compound 10] | > 7.00 | > 7.00
CCC(CC)NC(=O)c1cc(-c2ncnc3[nH]ccc23)c[nH]1 [Compound 11] | 6.30 to 7.00 | > 7.00
O=C(NC1CC1)c1cc(-c2ncnc3[nH]ccc23)c[nH]1 [Compound 12] | 6.30 to 7.00 | > 7.00
O=C(NC1CCCC1)c1cc(-c2ncnc3[nH]ccc23)c[nH]1 [Compound 13] | > 7.00 | > 7.00
C#CCNC(=O)c1cc(-c2ncnc3[nH]ccc23)c[nH]1 [Compound 14] | 6.30 to 7.00 | > 7.00
N#CCNC(=O)c1cc(-c2ncnc3[nH]ccc23)c[nH]1 [Compound 15] | > 7.00 | > 7.00
CCN(CCC#N)C(=O)c1cc(-c2ncnc3[nH]ccc23)c[nH]1 [Compound 16] | > 7.00 | > 7.00
C=CCN(CC=C)C(=O)c1cc(-c2ncnc3[nH]ccc23)c[nH]1 [Compound 17] | > 7.00 | > 7.00
N#CCCN(Cc1cccnc1)C(=O)c1cc(-c2ncnc3[nH]ccc23)c[nH]1 [Compound 18] | > 7.00 | > 7.00
CCCCN(CC#N)C(=O)c1cc(-c2ncnc3[nH]ccc23)c[nH]1 [Compound 19] | > 7.00 | > 7.00

Compound | pKi (JAK3) | pKi (JAK-2 enzyme)
CCCN(CC1CC1)C(=O)c1cc(-c2ncnc3[nH]ccc23)c[nH]1 [Compound 20] | > 7.00 | > 7.00
CCCN(CCC#N)C(=O)c1cc(-c2ncnc3[nH]ccc23)c[nH]1 [Compound 21] | > 7.00 | > 7.00
CCCCN(CCC#N)C(=O)c1cc(-c2ncnc3[nH]ccc23)c[nH]1 [Compound 22] | > 7.00 | > 7.00
CN(CCC#N)C(=O)c1cc(-c2ncnc3[nH]ccc23)c[nH]1 [Compound 23] | > 7.00 | > 7.00
C#CCN(C)C(=O)c1cc(-c2ncnc3[nH]ccc23)c[nH]1 [Compound 24] | 6.30 to 7.00 | > 7.00
COCCN(CCOC)C(=O)c1cc(-c2ncnc3[nH]ccc23)c[nH]1 [Compound 25] | 6.30 to 7.00 | > 7.00
CCCN(CCC)C(=O)c1cc(-c2ncnc3[nH]ccc23)c[nH]1 [Compound 26] | > 7.00 | > 7.00
CC(C)CN(C)C(=O)c1cc(-c2ncnc3[nH]ccc23)c[nH]1 [Compound 27] | 6.30 to 7.00 | > 7.00
CC(C)CN(CC(C)C)C(=O)c1cc(-c2ncnc3[nH]ccc23)c[nH]1 [Compound 28] | 6.30 to 7.00 | > 7.00
N#CCCN(Cc1ccccc1)C(=O)c1cc(-c2ncnc3[nH]ccc23)c[nH]1 [Compound 29] | > 7.00 | > 7.00
CCN(Cc1ccccc1)C(=O)c1cc(-c2ncnc3[nH]ccc23)c[nH]1 [Compound 30] | > 7.00 | > 7.00
CC(C)CC(=O)Nc1nc(-c2ncnc3[nH]ccc23)cs1 [Compound 31] | > 7.00 | > 7.00
O=C(CC1CCCC1)Nc1nc(-c2ncnc3[nH]ccc23)cs1 [Compound 32] | > 7.00 | > 7.00
CC(C)n1cc(-c2ncnc3[nH]ccc23)cn1 [Compound 34] | > 7.00 | > 7.00
CCC(C)n1cc(-c2ncnc3[nH]ccc23)cn1 (centres unmarked) [Compound 35] | > 7.00 | > 7.00
c1nc(-c2cnn(C3CCCC3)c2)c2cc[nH]c2n1 [Compound 36] | > 7.00 | > 7.00
CCCC(CCC)n1cc(-c2ncnc3[nH]ccc23)cn1 [Compound 37] | > 7.00 | > 7.00
CCCC(C)n1cc(-c2ncnc3[nH]ccc23)cn1 (centres unmarked) [Compound 38] | > 7.00 | > 7.00
CCC(CC)n1cc(-c2ncnc3[nH]ccc23)cn1 [Compound 39] | > 7.00 | > 7.00

Compound | pKi (JAK3) | pKi (JAK-2 enzyme)
CCN(CCO)C(=O)c1cc(-c2ncnc3[nH]ccc23)c[nH]1 [Compound 40] | 6.30 to 7.00 | > 7.00
O=C(c1cc(-c2ncnc3[nH]ccc23)c[nH]1)N1CCCC1CO (centres unmarked) [Compound 41] | 5.30 to 6.30 | 6.30 to 7.00
O=C(c1cc(-c2ncnc3[nH]ccc23)c[nH]1)N1CCC(CO)CC1 [Compound 42] | 5.30 to 6.30 | 6.30 to 7.00
CCOC(=O)C1CCN(C(=O)c2cc(-c3ncnc4[nH]ccc34)c[nH]2)CC1 [Compound 43] | 5.30 to 6.30 | 5.30 to 6.30
CN(C)CCCN(C)C(=O)c1cc(-c2ncnc3[nH]ccc23)c[nH]1 [Compound 44] | 5.30 to 6.30 | 5.30 to 6.30
O=C(c1cc(-c2ncnc3[nH]ccc23)c[nH]1)N1CCC(O)C1 (centres unmarked) [Compound 45] | 5.30 to 6.30 | 5.30 to 6.30
CN(CCc1ccccn1)C(=O)c1cc(-c2ncnc3[nH]ccc23)c[nH]1 [Compound 46] | 6.30 to 7.00 | 6.30 to 7.00
NC(=O)C1CCCN1C(=O)c1cc(-c2ncnc3[nH]ccc23)c[nH]1 (centres unmarked) [Compound 47] | 6.30 to 7.00 | 6.30 to 7.00
CCN(Cc1ccncc1)C(=O)c1cc(-c2ncnc3[nH]ccc23)c[nH]1 [Compound 48] | > 7.00 | > 7.00
CN(Cc1cccnc1)C(=O)c1cc(-c2ncnc3[nH]ccc23)c[nH]1 [Compound 49] | 6.30 to 7.00 | > 7.00
CN(C)C1CCN(C(=O)c2cc(-c3ncnc4[nH]ccc34)c[nH]2)C1 (centres unmarked) [Compound 50] | 5.30 to 6.30 | 5.30 to 6.30
O=C(c1cc(-c2ncnc3[nH]ccc23)c[nH]1)N1CCCC(O)C1 (centres unmarked) [Compound 51] | 5.30 to 6.30 | 6.30 to 7.00
N#CC1CCCN1C(=O)c1cc(-c2ncnc3[nH]ccc23)c[nH]1 (centres unmarked) [Compound 52] | 6.30 to 7.00 | > 7.00
O=C(c1cc(-c2ncnc3[nH]ccc23)c[nH]1)N1CCCC1C(F)(F)F (centres unmarked) [Compound 53] | 6.30 to 7.00 | > 7.00
CC1CCC(C)N1C(=O)c1cc(-c2ncnc3[nH]ccc23)c[nH]1 (centres unmarked) [Compound 54] | > 7.00 | > 7.00
CN(CC(F)(F)F)C(=O)c1cc(-c2ncnc3[nH]ccc23)c[nH]1 [Compound 55] | 6.30 to 7.00 | > 7.00
O=C(c1cc(-c2ncnc3[nH]ccc23)c[nH]1)N1CCC(O)C1 (centres unmarked) [Compound 56] | 5.30 to 6.30 | 6.30 to 7.00
CC(C(=O)OC(C)(C)C)n1cc(-c2ncnc3[nH]ccc23)cn1 (centres unmarked) [Compound 95] | – | 6.30 to 7.00
